# Assay results taken from US20100311170A1, “METHOD FOR REPROGRAMMING DIFFERENTIATED CELLS” (priority 2008, published 2010).
# B1: Wnt3a: Wnt protein isoform (R&D), Wnt/β-catenin pathway activator (protein, UniProt P56704 19-352, looked up)
# Protein Wnt-3a: SYPIWWSLAVGPQYSSLGSQPILCASIPGLVPKQLRFCRNYVEIMPSVAEGIKIGIQECQHQFRGRRWNCTTVHDSLAIFGPVLDKATRESAFVHAIASAGVAFAVTRSCAEGTAAICGCSSRHQGSPGKGWKWGGCSEDIEFGGMVSREFADARENRPDARSAMNRHNNEAGRQAIASHMHLKCKCHGLSGSCEVKTCWWSQPDFRAIGDFLKDKYDSASEMVVEKHRESRGWVETLRPRYTYFKVPTERDLVYYEASPNFCEPNPETGSFGTRDRTCNVSSHGIDGCDLLCCGRGHNARAERRREKCRCVFHWCCYVSCQECTRVYDVHTCK
# How the values were obtained:
# Assay type in all cases: cell-based, mouse
# [1] = tested on: ES-neo×NS-Oct4-puro cells; assay: PEG fusion of ES-neo cells with NS-Oct4-puro cells, hybrids treated after fusion; AP-positive puromycin-resistant reprogrammed colonies counted; conditions: for reprogrammed clones with respect to the control (fold): 24 h culture after fusion, Wnt3a 100 ng/ml or BIO 1 μM; for number of reprogrammed clones after prolonged treatment: 48 h of treatment after fusion
# Method: (§1) ES×NS and ES×MEF PEG fusions: 1.2×10^6 NS cells or MEFs were plated into T25 flasks. After 2 h, 1.2×10^6 ES cells were plated onto them, allowing them to attach to the NS cells or MEFs.
# ES-neo×MEF-hygro = assay: PEG fusion of ES-neo cells with MEF-hygro cells, hybrids treated after fusion; reprogrammed AP-positive clones counted
# Method: as §1
# [2] = tested on: ES-hygro×thymocyte-neo cells; assay: ES×thymocyte fusion, hybrids cultured in BIO; reprogrammed clones counted
# Method: ES×thymocyte fusions: the cells were fused in suspensions as previously described (Silva et al., 2006). After fusion, they were packed by centrifugation and the supernatant was discarded. The pelleted cells were resuspended in complete ES-cell medium and plated. The selection was carried out after 24 h, using hygromycin plus neomycin.
# [3] = tested on: ES cells fused with NS-Oct4-puro cells; assay: Pretreated-ES×NS PEG fusions (ES cells pre-cultured with Wnt3a or BIO, then fused with non-treated NS-Oct4-puro cells); conditions: for enhancement of NS reprogramming: ES cells cultured for 12, 48 and 72 h; for total reprogrammed clones / increase in the numbers of reprogrammed clones: ES cells pre-cultured for 24 h and 96 h; for increase in the numbers of reprogrammed clones: Wnt3a 100 ng/ml or BIO 1 μM
# Method: On the last day, the cells were trypsinized, counted, and plated on NS cells for fusions or harvested for RNA and protein analyses. PEG fusions and drug selection were performed as previously described.
# NS-Oct4-puro cells = assay: BIO-pretreated NS-Oct4-puro cells fused with non-treated ES-neo cells; conditions: NS cells pretreated with BIO before fusion
# Method: FIG. 12. […] (A) Plates containing fused hybrid colonies between BIO-treated NS-Oct4-puro cells and non-treated ES-neo cells. The clones were stained for the expression of AP and counted. The fold-change increases in the reprogrammed colonies are shown in the graph (mean±s.e.m.; n=3). (B) Example of a reprogrammed colony isolated from ES-neo cells fused with NS-Oct4-puro cells pretreated with BIO for 24 h. (C) Western blotting of total protein extracts of the NS-Oct4-puro cells at the indicated treatment times.
# ES×NS and ES×MEF PEG fusions: 1.2×10^6 NS cells or MEFs were plated into T25 flasks. After 2 h, 1.2×10^6 ES cells were plated onto them, allowing them to attach to the NS cells or MEFs. After a further 2 h, 1 ml 50% (w/v) PEG 1450 (Sigma; pre-warmed to 37° C.) was added for 2 min, and then the cells were washed three times with serum-free DMEM. […] After 12 h, the cells were trypsinized and plated into gelatin+laminin-treated p100 dishes. For the ES×NS selection, puromycin was added after 72 h, while for the ES×MEF selection, hygromycin plus neomycin were added after 24 h.
# [4] = tested on: ES-neo cells and ES×NS reprogrammed hybrids; assay: Clonogenicity and viability of ES cells and hybrids plated in BIO-containing medium; conditions: scaled numbers plated
# Method: FIG. 4. […] ES-neo cells (A) and ES×NS reprogrammed hybrids (B) (treated or not for 24 h with BIO) were plated at different densities. After 10 days, the plates were stained for AP and counted. The fold-changes in colonies are shown in the graphs (mean±s.e.m.; n=3).
# [5] = tested on: Topflash reporter gene (β-catenin binding sites fused to luciferase); assay: Topflash luciferase reporter assay in ES cells; conditions: 24 h
# Method: ES cells were co-transfected by nucleofection (Amaxa) with the Topflash reporter construct driving firefly luciferase cDNA and a pRL-CMV driving constitutive expression of renilla cDNA for normalization. Treatments with Wnt3a and BIO were carried out the day after the nucleofection and cells were lysed with 1× passive reporter lysis buffer. Firefly and renilla reporter activities were measured using a 96-well-based luminometer and were detected as per manufacturer instructions (Promega Dual-Light system),
# [6] = tested on: ES-neo cells with ES-Hygro cells; assay: PEG fusion of BIO-pretreated ES-neo cells with ES-Hygro cells (fusion control)
# Method: FIG. 6. […] Plates containing fused hybrid colonies between ES-neo cells (treated or not for 24 h with BIO) and non-treated ES-hygro cells. The clones were stained for the expression of AP and counted. The fold-change of colonies are shown in the graphs (mean±s.e.m.; n=3). (B) Quantification (as fold-increases in the number of colonies) of hybrid colonies from PEG fusions of ES-neo cells with NS-Oct4-puro cells. Hybrids from two fusion experiments (2,000,000 cells/flask) were allowed to recover for 3 h after PEG fusion. They were then pooled and divided in 5 plates ([…]) in such a way that the cells were not touching each other. Two hours after the plating, the cells were treated with BIO, as indicated. The fold-change increases in the reprogrammed colonies are shown in the graphs (mean±s.e.m.; n=3).
# [7] = tested on: ES-GFP cells with NS-Oct4-puro cells; assay: FACS analysis of the primary fusion products (ES-GFP × NS-Oct4-puro, 3 h after PEG fusion)
# Method: ES-GFP cells were treated or not with BIO for 12, 24, 48, 72 and 96 h and subsequently PEG fused with NS-Oct4-puro cells. Hybrids were trypsinized, counted, resuspended in PBS (1×10^6 cells per point) and centrifuged. Then, 0.1 ml of 4% paraformaldehyde solution was added to the cells and they were incubated for 15 min. Blocking solution (0.1% Triton, 10% goat-serum, in PBS) was subsequently added and the cells incubated for 1 h. The cells were then labelled with α-nestin (1:100) (ab6142, Abcan) overnight. The day after, the cells were incubated with the secondary antibody conjugated with PE fluorocrome (1:50) (ab7002 Abcam) for 1 h. FACS analyses were performed using a BDBiosciences FACSAria cytometer.
# NS cells = assay: Toxicity of BIO to NS cells (data not shown); conditions: BIO concentrations higher than 1 μM
# β-catenin = assay: Western blotting and immunofluorescence of β-catenin in treated ES cells
# Method: ES cells were washed twice with phosphate-buffered saline (PBS), fixed with 4% paraformaldehyde and blocked in 5% goat serum for 40 min. […] The cells were then washed and mounted on slides with a few drops of Vectashield with DAPI (Vector Laboratories).
# [8] = tested on: Nanog, Oct4, Rex1, Fgf4, c-Myc; assay: Semiquantitative and quantitative RT-PCR of ES-cell genes and β-catenin targets in pretreated ES cells; conditions: for expression of pluripotent genes Nanog, Oct4, Rex1 and Fgf4: all treatment times; for c-Myc expression: under Wnt3a and BIO treatments
# Method: For RT-PCR, the total RNA was extracted from ES cells and from embryoid bodies (200 embryoid bodies for each clone and for each differentiation time point) using the RNeasy Kit (Qiagen), and the cDNA was generated using superscript III (Invitrogen). The primers used were: […]
# RNA isolation and reverse transcription were carried out as described for semiquantitative RT-PCR. The template for each PCR reaction was the cDNA obtained from 16 ng total RNA in a 25-μl reaction volume. Platinum SYBR green qPCix-UDG (Invitrogen) was used with an ABprism 7000 real-time PCR machine, according to the manufacturer recommendations. The primers used were: […]
# [9] = tested on: EF4 cells and NS-Oct4-(LV-Hygro) cells; assay: PEG fusions between BIO-pretreated EF4 (Nanog over-expressing) cells and NS-Oct4-(LV-Hygro) cells; conditions: BIO-pretreated EF4 cells
# Method: NS-Oct4-(LV-Hygro) cells were derived from NS-Oct4-puro and transduced with the letiviral pHRcPPT-PGK-Hygromycin vector. EF4 cells carrying the CAG promoter driving Nanog and Puromycin resistance genes were a gift of Dr. I. Chambers. Cells were cultured as previously described (Chambers et al., 2003).
# NS×ES-Hygro or NS-HygroxEF4 cells PEG fusions were done as previously described. For the NS×ES-Hygro and NS×EF4 selection, Puromycin plus Hygromycin was added after 72 h.
# [10] = cultured in BIO for 12, 24 and 48 h, double-drug selected
# [11] = increased treatment time with BIO
# [12] = increasing BIO concentrations, 24 h
molecule,measurement,setting,value
"O=C1Nc2cc(Br)ccc2/C1=C1/Nc2ccccc2/C1=N\O [BIO, 6-bromoindirubin-3′-oxime]",reprogrammed clones with respect to the control (fold),[1],up to 70 fold
same,number of reprogrammed clones after prolonged treatment,[1],decreased
same,time of BIO treatment giving the peak of reprogrammed clones,"[1]; hybrids re-plated 3 h after fusion at a dilution without cell contact, BIO for 12, 24, 48 and 72 h",24 h
same,increase in numbers of reprogrammed selected clones vs fusions in the absence of BIO,ES-neo×MEF-hygro; [10],up to 20 fold
same,reprogramming efficiency with increased treatment time,ES-neo×MEF-hygro; [11],lower
same,increase in numbers of reprogrammed selected clones vs fusions in the absence of BIO,[2]; [10],≤ 9 fold
same,reprogramming efficiency with increased treatment time,[2]; [11],lower
same,enhancement of NS reprogramming,[3],poor enhancement
same,total reprogrammed clones,[3],"about 2,000 total clones"
same,increase in the numbers of reprogrammed clones,[3],≤ 80 fold
same,"number of ES-cell-like, AP-positive reprogrammed clones",NS-Oct4-puro cells,only a slight increase
same,clonogenicity and viability in absence vs presence of BIO,[4],equal
same,activation of the Topflash reporter gene,[5]; 1 μM BIO,relatively limited activation
same,Topflash activation with increasing concentration,[5]; increasing BIO concentrations,increased Topflash activation
same,number of clones after ES×ES fusion (PEG-mediated fusion),[6],only a slight increase
same,"number of hybrid clones, ES cells pre-treated or not with BIO before fusion",[7],same number of hybrid clones
same,toxicity to NS cells,NS cells,slightly toxic
same,inhibition of GSK-3 in ES cells,β-catenin; 1 μM BIO,not fully inhibited
same,levels of phospho-β-catenin with increasing concentration,β-catenin; [12],decreased levels of phospho-β-catenin
same,β-catenin nuclear localization with increasing concentration,β-catenin; [12],increased β-catenin nuclear localization
same,"expression of pluripotent genes Nanog, Oct4, Rex1 and Fgf4",[8],same levels
same,c-Myc expression,[8],constantly expressed
same,reprogramming of NS cells with Nanog over-expression plus Wnt pathway activation,[9],cooperate to enhance reprogramming
B1,reprogrammed clones with respect to the control (fold),[1],up to 20 fold
same,number of reprogrammed clones after prolonged treatment,[1],decreased
same,increase in number of AP-positive reprogrammed clones,ES-neo×MEF-hygro; hybrids cultured with Wnt3a for 48 h,up to 5 fold
same,enhancement of NS reprogramming,[3],poor enhancement
same,total reprogrammed clones,[3],about 600 total clones
same,increase in the numbers of reprogrammed clones,[3],Up to 15 fold
same,"expression of pluripotent genes Nanog, Oct4, Rex1 and Fgf4",[8],same levels
same,c-Myc expression,[8],constantly expressed
